Measurements published in ChEMBL document CHEMBL1201862, “PubChem BioAssay data set” (2004).
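Compound exposure: 48 hours, 5 concentrations, 96-well plates. Abbreviation: GI50, concentration required for 50% inhibition of growth.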 Calls of active or inactive are those of the source. No stated cut-off is given here; in the data, active = GI50 up to about 1.1 µM and inactive = higher. Starred links: 1 amine or outer side, 2 acyl side, 3 side chain; linkers in the order of their positions; H or OH if unused. Positions of bridges follow the written chain, without caps; N, C: chain ends. Non-standard residues stand in square brackets, D forms with d. Residues, ends and D or L forms follow the SMILES beside them. Chains are numbered I, II in the order given. Actinocin(9to1) = Cc1c2oc3c(C)ccc(C(=O)[*:1])c3nc-2c(C(=O)[*:2])c(N)c1=O; NMeV = CN[CH](C(=O)O)C(C)C; Sar = CNCC(=O)O

Key:
Assay in all cases: NCI anticancer screen, dose series, 48 h
A549 = tested on: A549
RPMI-8226 = tested on: RPMI-8226
U-251 = tested on: U-251
SK-MEL-2 = tested on: SK-MEL-2
SR = tested on: SR
SF-295 = tested on: SF-295
K562 = tested on: K562
DU-145 = tested on: DU-145
SK-MEL-5 = tested on: SK-MEL-5
SK-OV-3 = tested on: SK-OV-3
HL-60 = tested on: HL-60
786-0 = tested on: 786-0
T47D = tested on: T47D
UACC-257 = tested on: UACC-257
HOP-62 = tested on: HOP-62
OVCAR-5 = tested on: OVCAR-5
NCI-H226 = tested on: NCI-H226
KM12 = tested on: KM12
SNB-75 = tested on: SNB-75
MCF7 = tested on: MCF7

Structure (SMILES)	GI50 (A549)	GI50 (RPMI-8226)	GI50 (U-251)	GI50 (SK-MEL-2)	GI50 (SR)	GI50 (SF-295)	GI50 (K562)	GI50 (DU-145)	GI50 (SK-MEL-5)	GI50 (SK-OV-3)	GI50 (HL-60)	GI50 (786-0)	GI50 (T47D)	GI50 (UACC-257)	GI50 (HOP-62)	GI50 (OVCAR-5)	GI50 (NCI-H226)	GI50 (KM12)	GI50 (SNB-75)	GI50 (MCF7)
CN1CCN(c2ccc3c(c2)NCC(=O)N3)CC1	> 100 µM (inactive)	> 100 µM (inactive)	> 100 µM (inactive)	> 100 µM (inactive)	> 100 µM (inactive)	> 100 µM (inactive)	> 100 µM (inactive)	> 100 µM (inactive)	> 100 µM (inactive)	> 100 µM (inactive)	> 100 µM (inactive)	> 100 µM (inactive)	> 100 µM (inactive)	> 100 µM (inactive)	> 100 µM (inactive)	> 100 µM (inactive)	> 100 µM (inactive)	> 100 µM (inactive)	> 100 µM (inactive)	–
CCOC(=O)Cn1nnc2cc(Nc3c(C)[n+]([O-])c4cc(F)c(OCC)cc4[n+]3[O-])ccc21	–	> 100 µM (inactive)	32.5 µM (inactive)	32.4 µM (inactive)	–	38.3 µM (inactive)	7.16 µM (inactive)	> 100 µM (inactive)	> 100 µM (inactive)	38.6 µM (inactive)	> 100 µM (inactive)	43.4 µM (inactive)	> 100 µM (inactive)	> 100 µM (inactive)	27.5 µM (inactive)	> 100 µM (inactive)	> 100 µM (inactive)	> 100 µM (inactive)	–	> 100 µM (inactive)
COc1ccc(-c2oc3cc(OC(C)=O)cc(OC(C)=O)c3c(=O)c2OC)cc1	20.7 µM (inactive)	12.5 µM (inactive)	14.2 µM (inactive)	–	13.5 µM (inactive)	15.9 µM (inactive)	9.77 µM (inactive)	15.5 µM (inactive)	12.4 µM (inactive)	28.8 µM (inactive)	12.1 µM (inactive)	–	19.7 µM (inactive)	19.7 µM (inactive)	18.1 µM (inactive)	23.3 µM (inactive)	–	–	–	20.7 µM (inactive)
NC(CCCCCP(=O)(O)O)C(=O)O (stereo unspecified) [AP-7]	> 100 µM (inactive)	> 100 µM (inactive)	> 100 µM (inactive)	> 100 µM (inactive)	> 100 µM (inactive)	> 100 µM (inactive)	> 100 µM (inactive)	> 100 µM (inactive)	> 100 µM (inactive)	> 100 µM (inactive)	> 100 µM (inactive)	–	83.8 µM (inactive)	> 100 µM (inactive)	–	> 100 µM (inactive)	–	> 100 µM (inactive)	> 100 µM (inactive)	–
COc1ccc2cc(C(=O)NCCCNC(=O)c3ccc4c(OC)c(OC)ccc4c3)ccc2c1OC	> 100 µM (inactive)	> 100 µM (inactive)	> 100 µM (inactive)	> 100 µM (inactive)	> 100 µM (inactive)	> 100 µM (inactive)	> 100 µM (inactive)	> 100 µM (inactive)	> 100 µM (inactive)	> 100 µM (inactive)	–	> 100 µM (inactive)	> 100 µM (inactive)	> 100 µM (inactive)	> 100 µM (inactive)	> 100 µM (inactive)	–	> 100 µM (inactive)	–	> 100 µM (inactive)
Cc1c2oc3c(C)ccc(C(=O)NC4C(=O)NC(Cc5ccc(O)cc5)C(=O)N5CCCC5C(=O)N(C)CC(=O)N(C)C(C(C)C)C(=O)OC4C)c3nc-2c(C(=O)NC2C(=O)NC(Cc3ccc(O)cc3)C(=O)N3CCCC3C(=O)N(C)CC(=O)N(C)C(C(C)C)C(=O)OC2C)c(N)c1=O (stereo unspecified) (I: TYP[Sar][NMeV] / II: TYP[Sar][NMeV]; ester I:1-I:C, II:1-II:C; linker I:N-II:N via Actinocin(9to1); configuration not given here)	0.635 µM (active)	0.282 µM (active)	0.374 µM (active)	–	–	0.42 µM (active)	0.354 µM (active)	1.43 µM (inactive)	0.163 µM (active)	10.5 µM (inactive)	–	0.368 µM (active)	1.36 µM (inactive)	1.56 µM (inactive)	2.33 µM (inactive)	7.66 µM (inactive)	0.957 µM (active)	0.577 µM (active)	0.139 µM (active)	0.0805 µM (active)
CC(=O)c1ccc(NCN2C(=O)c3ccccc3C2=O)cc1	> 100 µM (inactive)	66.5 µM (inactive)	> 100 µM (inactive)	> 100 µM (inactive)	–	> 100 µM (inactive)	> 100 µM (inactive)	> 100 µM (inactive)	> 100 µM (inactive)	> 100 µM (inactive)	36.9 µM (inactive)	> 100 µM (inactive)	> 100 µM (inactive)	> 100 µM (inactive)	> 100 µM (inactive)	> 100 µM (inactive)	–	> 100 µM (inactive)	30.5 µM (inactive)	> 100 µM (inactive)
O=C1c2cccnc2-c2nccc3c2c1nc1ccccc13 [ASCIDIDEMIN]	0.255 µM (active)	0.264 µM (active)	0.0845 µM (active)	0.184 µM (active)	–	0.0798 µM (active)	0.166 µM (active)	0.0621 µM (active)	0.0583 µM (active)	0.272 µM (active)	0.1 µM (active)	0.752 µM (active)	0.29 µM (active)	0.321 µM (active)	0.097 µM (active)	0.475 µM (active)	0.21 µM (active)	0.183 µM (active)	0.389 µM (active)	0.0708 µM (active)
CC(=O)O[C@H]1CC[C@H]2[C@@H]3CCC4=C/C(=N/OCCN(C)C)CC[C@]4(C)[C@H]3CC[C@]12C	12 µM (inactive)	1.2 µM (inactive)	13.3 µM (inactive)	11 µM (inactive)	–	5.41 µM (inactive)	2.11 µM (inactive)	16.1 µM (inactive)	4.58 µM (inactive)	12.2 µM (inactive)	1.88 µM (inactive)	8.17 µM (inactive)	5.81 µM (inactive)	7.38 µM (inactive)	13.4 µM (inactive)	16.9 µM (inactive)	3.8 µM (inactive)	5.61 µM (inactive)	6.68 µM (inactive)	5.64 µM (inactive)
CCC(C(=O)c1ccc(OC)c(OC)c1)N(C(=O)C(F)(F)F)C(C)c1ccccc1 (stereo unspecified)	> 100 µM (inactive)	> 100 µM (inactive)	> 100 µM (inactive)	–	> 100 µM (inactive)	> 100 µM (inactive)	> 100 µM (inactive)	> 100 µM (inactive)	> 100 µM (inactive)	> 100 µM (inactive)	> 100 µM (inactive)	–	91 µM (inactive)	> 100 µM (inactive)	> 100 µM (inactive)	> 100 µM (inactive)	–	–	–	> 100 µM (inactive)
Cc1nc2ccccc2n1Cc1nnc2n1N=C(c1ccccc1)CS2	36.2 µM (inactive)	17.7 µM (inactive)	25.1 µM (inactive)	17 µM (inactive)	–	43.1 µM (inactive)	–	37.5 µM (inactive)	29.2 µM (inactive)	> 100 µM (inactive)	29.2 µM (inactive)	44 µM (inactive)	10.6 µM (inactive)	22.5 µM (inactive)	47.3 µM (inactive)	53.3 µM (inactive)	> 100 µM (inactive)	31.2 µM (inactive)	18 µM (inactive)	27.4 µM (inactive)
O=C(O)COc1ccc(C(=O)/C(SS/C(C(=O)c2ccc(OCC(=O)O)c(Cl)c2Cl)=C2\C=C(c3ccc(Br)cc3)SS2)=C2/C=C(c3ccc(Br)cc3)SS2)c(Cl)c1Cl	33.9 µM (inactive)	4.73 µM (inactive)	3.47 µM (inactive)	6.61 µM (inactive)	–	5.58 µM (inactive)	2.92 µM (inactive)	16.8 µM (inactive)	11.9 µM (inactive)	21.3 µM (inactive)	1.55 µM (inactive)	3.87 µM (inactive)	2.3 µM (inactive)	25.3 µM (inactive)	12.9 µM (inactive)	24.8 µM (inactive)	6.81 µM (inactive)	8.13 µM (inactive)	7.5 µM (inactive)	0.0513 µM (active)
N#C/C(=C\c1cc(F)cc(F)c1)c1ccccn1	28.6 µM (inactive)	14.9 µM (inactive)	16.8 µM (inactive)	22.9 µM (inactive)	24 µM (inactive)	16.3 µM (inactive)	15.5 µM (inactive)	36.9 µM (inactive)	13.3 µM (inactive)	61.8 µM (inactive)	> 10 µM (inactive)	> 10 µM (inactive)	–	32.1 µM (inactive)	> 10 µM (inactive)	28.8 µM (inactive)	17.5 µM (inactive)	22.1 µM (inactive)	16.1 µM (inactive)	26.9 µM (inactive)
COC(=O)C1C(C(=O)OC)N(Cc2ccccc2)C(=O)N1Cc1ccccc1 (stereo unspecified)	> 100 µM (inactive)	35 µM (inactive)	> 100 µM (inactive)	> 100 µM (inactive)	–	39.1 µM (inactive)	45.6 µM (inactive)	> 100 µM (inactive)	58.5 µM (inactive)	53.8 µM (inactive)	13.3 µM (inactive)	–	68.9 µM (inactive)	76 µM (inactive)	> 100 µM (inactive)	> 100 µM (inactive)	> 100 µM (inactive)	> 100 µM (inactive)	> 100 µM (inactive)	7.5 µM (inactive)
